Reference: patent publication US20050059735A1, “Cyclic amino acid derivatives useful as pharmaceutical agents” (priority 2000, published 2005)
Like-named read-outs stand apart in the source and are kept apart here.

Assays:
[1] = rat, in vivo, po, 5 mg/kg
in vivo = settings: rat, po

Structure (SMILES)	half-life [1]	half-life (in vivo) [h]
O=C(CC1(CNC(=O)c2ccccc2)CCCCC1)OCc1ccccc1 [Example 10, [1-(Benzoylamino-methyl)-cyclohexyl]-acetic acid benzyl ester]	about 6 hrs	–
NCC1(CC(=O)O)CCCCC1 [gabapentin, 1-(aminomethyl)-cyclohexylacetic acid]	–	1.2
